Columns and labels:
[1] = test system: muscarinic receptors of the salivary gland; conditions: compared with oxybutynin; cited from earlier work
[2] = test system: women with urinary urgency and frequency; assay: randomized, double-blind, placebo-controlled study of tolterodine tartrate (Detrol) tablets 1 mg b.i.d. in women with urinary urgency and frequency; type: in vivo, human
Description: The objective of a study is to evaluate the efficacy and safety of tolterodine tartrate (Detrol®) tablets 2 mg daily versus placebo, in the treatment of urinary urgency and frequency in women, in a randomized, double-blind, placebo-controlled study. The patients received 1 mg tolterodine b.i.d. or placebo, and the dosage regime was one tablet orally, every 8-12 hours, not to exceed 2 tablets daily. The treatment duration was 10 days, after a 5 day pretreatment baseline phase. […] women were included in the study, and were randomized to either the tolterodine or placebo group. All of the subjects were eligible for intent-to-treat (ITT) and safety analysis. 1077 of the randomized subjects were included in the per-protocol analysis.
Females with symptoms urinary urgency, defined as having to stop the current activity and go immediately to the bathroom at least once a day (severe) or able to finish a task but go right to the bathroom at least twice a day (moderate), were included. Frequency was defined as >7 micturitions per 24 hours. The mean age was 48 years. About 83% of the subjects were Caucasian.
Women were asked to complete a diary recording the time of awakening; number and severity of urgency of each micturition, and the number of episodes of incontinence throughout the day as well as, time when tablets taken. The women were directed to begin using the study drug after 5 days (baseline, pretreatment period): 1 tablet every 8-12 hours not to exceed 2 tablets per day.
Thus, this study was designed to evaluate the efficacy and safety of tolterodine 1 mg twice daily, every 8-12 hours, compared to placebo, in women with urinary urgency and frequency. The primary efficacy endpoints were: • 1. Subject perception of improvement in symptoms of urgency after five days of treatment, vs. baseline period, using a three-point categorical scale (Chi Square analysis): • 2. Mean of daily average severity of urgency for urgent episodes (urgency rating score of at least 1) for the 5-day baseline period vs. first five days of treatment.
A five-point categorical scale was used to assess the severity of urgency experienced at each micturition, ranging from 0 (no discomfort) to 4 (very severe).
The secondary efficacy endpoints were: • 1. Average number of urgency episodes per day per subject for the 5-day baseline period vs. first five days of treatment. • 2. Average urgency score (severity of urgency) per subject for micturition episodes accompanied by urgency (a rating score of at least 1) for the 5-day baseline period vs. first day of treatment. • 3. Average number of micturitions per day per subject for the 5-day baseline period vs. first five days of treatment.
Subject perception of improvement in symptoms or urgency after ten days of treatment, vs. baseline period, using a three-point categorical scale (Chi Square analysis).
The sudden urge to urinate accompanied by frequency of urination is a problem for many adults. The symptoms of urgency are most problematic. Therefore, the primary variables examined the subjective perception of improvement in urgency as well as the severity of urgency in subjects treated with tolterodine 1 mg b.i.d. In addition, the frequency of urination was examined as this is a standard assessment tool commonly used to assess the efficacy of drugs for the treatment of overactive bladder syndrome.
Two populations were analyzed for efficacy: the intent-to-treat (ITT) and the per-protocol populations. The former comprised all individuals randomized to treatment. The latter consisted of those individuals who complied with the protocol with regard to eligibility, visit schedule, diary completion and treatment schedule. All randomized subjects who took study medication were included in the safety analyses. Incidence of adverse events was tabulated for all randomized subjects. […]

bladder = conditions: compared with oxybutynin; cited from earlier work
[3] = all analyzed time points, including day 1, compared to placebo
[4] = all analyzed time points, compared to placebo

## Cc1ccc(O)c([C@H](CCN(C(C)C)C(C)C)c2ccccc2)c1 [tolterodine, (R)-N,N-diisopropyl-3-(2-hydroxy-5-methylphenyl)-3-phenylpropanamine]
[1]
  affinity for muscarinic receptors of the salivary gland relative to oxybutynin: eight times lower
[2]; 1 mg b.i.d. oral, 10 days, placebo 2.0%
  subjects with AEs related to nervous system disorders: 3.0%
[2]; 1 mg b.i.d. oral, 10 days, placebo 4.7%
  subjects with adverse events considered related to study medication: 4.8%
[2]; 1 mg b.i.d. oral, 10 days, placebo 4.9%
  subjects with AEs related to gastrointestinal disorders: 5.6%
[2]; 1 mg b.i.d. oral, 10 days, placebo 10.7%
  subjects reporting adverse events: 10.8%
[2]; 1 mg b.i.d. oral, 10 days, placebo 13
  subjects with AEs related to nervous system disorders (number): 20 subjects
[2]; 1 mg b.i.d. oral, 10 days, placebo 31
  subjects with adverse events considered related to study medication (number): thirty-two
[2]; 1 mg b.i.d. oral, 10 days, placebo 32
  subjects with AEs related to gastrointestinal disorders (number): 37 subjects
[2]; 1 mg b.i.d. oral, 10 days, placebo 70
  subjects reporting adverse events (number): Seventy-one
[2]; 1 mg b.i.d. oral, 10 days, placebo four
  subjects discontinued from the study due to AEs (number): Three
[2]; 1 mg b.i.d. oral, 10 days, placebo one
  subjects reporting serious AEs (number): Three
[2]; Day 5, 1 mg b.i.d. oral, compared to placebo
  percentage of subjects reporting symptom improvement (subject perception of improvement in symptoms of urgency): statistically significantly higher percentage
[2]; [3]
  decrease in severity of urgency for all micturitions: statistically significantly greater decrease
  decrease in severity of urgency for urgent episodes: statistically significantly greater decrease
[2]; [4]
  decrease in the number of micturitions/day: statistically significantly greater decrease
  reduction in the number of urgent episodes/day: statistically significantly greater reduction
[2]; days 1-5, 1 mg b.i.d. oral, N=660, placebo 1.26
  reduction from baseline in number of micturitions/day: 1.59
[2]; days 1-5, 1 mg b.i.d. oral, placebo 0.19
  improvement from baseline in severity of urgency for urgent episodes (score, 0-4 scale): 0.27
bladder
  potency in the bladder relative to oxybutynin: equipotent with oxybutynin

From US20070155838A1, “New Method for Treating Urinary Disorders” (Pfizer Inc, priority 2003, published 2007)
